Measurements as given in patent US9446093B2, “Injectable aqueous ophthalmic composition and method of use therefor” (Alcon Research Ltd., priority 2009, dated 2016).

Assay: pKa, charge and solubility of the amine groups of the polymer

Substance: Poly-L-lysine
- pKa value of the amine groups: approximately 10.5
